Measured values: patent publication US11285156B2, “Substituted piperazines as KRAS G12C inhibitors” (Amgen Inc., priority 2018, dated 2022)
Like-named read-outs stand apart in the source and are kept apart here.

Legend:
[1] = tested on: Phosphorylation of ERK1/2 in MIA PaCa-2 cells; test: Phospho-ERK1/2 MSD assay in MIA PaCa-2 cells; format: cell-based; details: read-out: p-ERK IC50 (2 h, MiaPaCa-2; μM), 2 h compound treatment, MIA PaCa-2 cells, EGF stimulated
Procedure: (§1) Phospho-ERK1/2 MSD Assay:
(§2) Sixteen hours prior to compound treatment, MIA PaCa-2 or A549 cells were seeded in 96-well cell culture plates at a density of 25,000 cells/well and incubated at 37° C., 5% CO2. A compound dose-response titration was diluted in growth media, added to appropriate wells of a cell culture plate, and then incubated at 37° C., 5% CO2 for 2 or 4 hours (see Table 15). Following compound treatment, cells were stimulated with 10 ng/mL EGF (Roche 11376454001) for 10 min, washed with ice-cold Dulbecco's phosphate-buffered saline, no Ca2+ or Mg2+ (ThermoFisher Scientific 14190144), and then lysed in RIPA buffer (50 mM Tris-HCl pH 7.5, 1% Igepal, 0.5% sodium deoxycholate, 150 mM NaCl. and 0.5% sodium dodecyl sulfate) containing protease inhibitors (Roche 4693132001) and phosphatase inhibitors (Roche 4906837001). Phosphorylation of ERK1/2 in compound-treated lysates was assayed using Phospho-ERK1/2 Whole Cell Lysate kits (Meso Scale Discovery K151DWD) according to the manufacturer's protocol.

[2] = tested on: Phosphorylation of ERK1/2 in A549 cells; test: Phospho-ERK1/2 MSD assay in A549 cells; format: cell-based; details: read-out: p-ERK IC50 (2 h, A549; μM), 2 h compound treatment, A549 cells, EGF stimulated
Procedure: as §1
as §2, with “MIA PaCa-2 (ATCC® CRL-1420™) and A549 (ATCC® CCL-185™) cells were cultured in RPMI 1640 Medium (ThermoFisher Scientific 11875093) containing 10% fetal bovine serum (ThermoFisher Scientific 16000044) and 1× penicillin-streptomycin-glutamine (ThermoFisher Scientific 10378016). Sixteen” for “Sixteen”

Structure (SMILES) | IC50 ([2]; Homo sapiens, A549, 2 h) [µM] | IC50 ([1]; Homo sapiens, MIA PaCa-2, 2 h) [µM] | IC50 [1] [µM] | IC50 [2] [µM]
C=CC(=O)N1C[C@H](C)N(c2nc(=O)n(-c3c(C)ccnc3C(C)C)c3nc(-c4c(F)cccc4[S+](C)[O-])c(Cl)cc23)C[C@H]1C (atropisomer, axis not shown; (M)) [Example 211-2, (M)-4-((2S,5R)-4-Acryloyl-2,5-dimethylpiperazin-1-yl)-6-chloro-7-(2-fluoro-6-(methylsulfinyl)phenyl)-1-(2-isopropyl-4-methylpyridin-3-yl)pyrido[2,3-d]pyrimidin-2(1H)-one] | – | – | 0.106 | > 7.5
C=CC(=O)N1C[C@H](C)N(c2nc(=O)n(-c3c(C)ccnc3C(C)C)c3nc(-c4c(F)cccc4[S+](C)[O-])c(Cl)cc23)C[C@H]1C (atropisomer, axis not shown; (M)) [Example 211-3, (M)-4-((2S,5R)-4-Acryloyl-2,5-dimethylpiperazin-1-yl)-6-chloro-7-(2-fluoro-6-(methylsulfinyl)phenyl)-1-(2-isopropyl-4-methylpyridin-3-yl)pyrido[2,3-d]pyrimidin-2(1H)-one] | – | – | 0.253 | > 7.5
C=CC(=O)N1C[C@H](C)N(c2nc(=O)n(-c3c(C)ccnc3C(C)C)c3nc(-c4ccccc4[S+](C)[O-])c(Cl)cc23)C[C@H]1C (atropisomer, axis not shown; (M)) [Example 212-1, (M)-4-((2S,5R)-4-Acryloyl-2,5-dimethylpiperazin-1-yl)-6-chloro-1-(2-isopropyl-4-methylpyridin-3-yl)-7-(2-(methylsulfinyl)phenyl)pyrido[2,3-d]pyrimidin-2(1H)-one] | > 7.5 | – | 0.705 | –
C=CC(=O)N1C[C@H](C)N(c2nc(=O)n(-c3c(C)ccnc3C(C)C)c3nc(-c4ccccc4[S+](C)[O-])c(Cl)cc23)C[C@H]1C (atropisomer, axis not shown; (M)) [Example 212-2, (M)-4-((2S,5R)-4-Acryloyl-2,5-dimethylpiperazin-1-yl)-6-chloro-1-(2-isopropyl-4-methylpyridin-3-yl)-7-(2-(methylsulfinyl)phenyl)pyrido[2,3-d]pyrimidin-2(1H)-one] | – | – | 0.237 | > 7.5
C=CC(=O)N1C[C@H](C)N(c2nc(=O)n(-c3c(C)ccnc3C(C)C)c3nc(-c4c(F)cccc4S(C)(=O)=O)c(Cl)cc23)C[C@H]1C (atropisomer, axis not shown; (M)) [Example 214, (M)-4-((2S,5R)-4-Acryloyl-2,5-dimethylpiperazin-1-yl)-6-chloro-7-(2-fluoro-6-(methylsulfonyl)phenyl)-1-(2-isopropyl-4-methylpyridin-3-yl)pyrido[2,3-d]pyrimidin-2(1H)-one] | – | – | 0.025 | > 7.5
C=CC(=O)N1C[C@H](C)N(c2nc(=O)n(-c3c(C)ccnc3C(C)C)c3nc(-c4c(F)cccc4S(C)(=O)=O)c(Cl)cc23)C[C@H]1C (atropisomer, axis not shown; (M)) [Example 214-1, (M)-4-((2S,5R)-4-Acryloyl-2,5-dimethylpiperazin-1-yl)-6-chloro-7-(2-fluoro-6-(methylsulfonyl)phenyl)-1-(2-isopropyl-4-methylpyridin-3-yl)pyrido[2,3-d]pyrimidin-2(1H)-one] | > 7.5 | 0.03 | – | –
C=CC(=O)N1C[C@H](C)N(c2nc(=O)n(-c3c(C)cncc3C(C)C)c3nc(-c4ccccc4F)c(Cl)cc23)C[C@H]1C (single isomer, unassigned) [Example 100-8] | > 7.5 | 0.042 | – | –
C=CC(=O)N1C[C@H](C)N(c2nc(=O)n(-c3c(C(C)C)ccnc3C(C)C)c3nc(-c4ccccc4Cl)c(Cl)cc23)C[C@H]1C (single isomer, unassigned) [Example 124-6] | > 7.5 | 0.062 | – | –
C=CC(=O)N1C[C@H](C)N(c2nc(=O)n(-c3c(C(C)C)ccnc3C(C)C)c3nc(-c4ccccc4C)c(Cl)cc23)C[C@H]1C (single isomer, unassigned) [Example 125-2] | – | – | 0.038 | > 7.5
C=CC(=O)N1C[C@H](C)N(c2nc(=O)n(-c3c(C(C)C)ccnc3C(C)C)c3nc(-c4ccccc4C(F)(F)F)c(Cl)cc23)C[C@H]1C (single isomer, unassigned) [Example 125-3] | – | – | 0.041 | > 7.5
C=CC(=O)N1C[C@H](C)N(c2nc(=O)n(-c3c(C(C)C)ccnc3C(C)C)c3nc(-c4c(O)cccc4F)c(Cl)cc23)C[C@H]1C (single isomer, unassigned) [Example 125-4] | – | – | 0.023 | > 7.5
C=CC(=O)N1C[C@H](C)N(c2nc(=O)n(-c3c(C(C)C)ccnc3C(C)C)c3nc(-c4ccccc4Cl)c(Cl)cc23)C[C@H]1C (single isomer, unassigned) [Example 125-6] | – | – | 0.105 | > 7.5
C=CC(=O)N1C[C@H](C)N(c2nc(=O)n(-c3c(C(C)C)ccnc3C(C)C)c3nc(-c4ccccc4)c(Cl)cc23)C[C@H]1C (single isomer, unassigned) [Example 125-7] | – | – | 0.137 | > 7.5
C=CC(=O)N1C[C@H](C)N(c2nc(=O)n(-c3c(C)cc(C)nc3C(C)C)c3nc(-c4ccccc4F)c(Cl)cc23)C[C@H]1C (single isomer, unassigned) [Example 165-1] | > 7.5 | 0.049 | – | –
C=CC(=O)N1C[C@H](C)N(c2nc(=O)n(-c3c(C)cc(C(=C)C)nc3C(C)C)c3nc(-c4ccccc4F)c(Cl)cc23)C[C@H]1C (single isomer, unassigned) [Example 173-1] | 5.97 | 0.229 | – | –
C=CC(=O)N1C[C@H](C)N(c2nc(=O)n(-c3c(Cl)ccnc3C(C)C)c3nc(-c4ccccc4F)c(Cl)cc23)C[C@H]1C [Example 55-50, 6-Chloro-1-(4-chloro-2-isopropyl-3-pyridyl)-4-[(2S,5R)-2,5-dimethyl-4-prop-2-enoyl-piperazin-1-yl]-7-(2-fluorophenyl)pyrido[2,3-d]pyrimidin-2-one] | > 7.5 | 0.023 | – | –

Further lines, with some results ahead:

IC50 ([2]; Homo sapiens, A549, 2 h) [µM] | IC50 ([1]; Homo sapiens, MIA PaCa-2, 2 h) [µM] | Structure (SMILES) | IC50 [1] [µM] | IC50 [2] [µM]
> 7.5 | – | C=CC(=O)N1C[C@H](C)N(c2nc(=O)n(-c3c(C)ccnc3C(C)C)c3nc(-c4c(F)cccc4[S+](C)[O-])c(Cl)cc23)C[C@H]1C (atropisomer, axis not shown; (M)) [Example 211-1, (M)-4-((2S,5R)-4-Acryloyl-2,5-dimethylpiperazin-1-yl)-6-chloro-7-(2-fluoro-6-(methylsulfinyl)phenyl)-1-(2-isopropyl-4-methylpyridin-3-yl)pyrido[2,3-d]pyrimidin-2(1H)-one] | 0.128 | –
> 7.5 | 0.659 | C=CC(=O)N1C[C@H](C)N(c2nc(=O)n(-c3c(C)ccnc3C(C)C)c3nc(-c4cc(S(C)(=O)=O)ccc4F)c(Cl)cc23)C[C@H]1C (atropisomer, axis not shown; (M)) [Example 223, (M)-4-((2S,5R)-4-Acryloyl-2,5-dimethylpiperazin-1-yl)-6-chloro-7-(2-fluoro-5-(methylsulfonyl)phenyl)-1-(2-isopropyl-4-methylpyridin-3-yl)pyrido[2,3-d]pyrimidin-2(1H)-one] | – | –
> 7.5 | 0.171 | C=CC(=O)N1C[C@H](C)N(c2nc(=O)n(-c3c(C)cc(N4CCC4)nc3C(C)C)c3nc(-c4ccccc4F)c(Cl)cc23)C[C@H]1C (single isomer, unassigned) [Example 175-2] | – | –
5.75 | 0.347 | C=CC(=O)N1C[C@H](C)N(c2nc(=O)n(-c3c(C)cc(C(C)C)nc3C(C)C)c3nc(-c4ccccc4F)c(Cl)cc23)C[C@H]1C (single isomer, unassigned) [Example 176-1] | – | –
3.34 | 0.063 | C=CC(=O)N1C[C@H](C)N(c2nc(=O)n(-c3c(C)cc(C=C)nc3C(C)C)c3nc(-c4ccccc4F)c(Cl)cc23)C[C@H]1C (single isomer, unassigned) [Example 177-1] | – | –
> 7.5 | 0.1 | C=CC(=O)N1[C@H](C)CN(c2nc(=O)n(-c3c(C(C)C)cnnc3C(C)C)c3nc(-c4ccccc4F)c(Cl)cc23)C[C@@H]1C (single isomer, unassigned) [Example 206-1, 4-(cis-4-Acryloyl-3,5-dimethylpiperazin-1-yl)-6-chloro-1-(3,5-diisopropylpyridazin-4-yl)-7-(2-fluorophenyl)pyrido[2,3-d]pyrimidin-2(1H)-one] | – | –
